Data as given in US9493506B2 (Enanta Pharmaceuticals, Inc., priority 2010, dated 2016).

Legend:
Type in all cases: cell-based, hepatitis C virus (genotype 1a-H77)
[1] = tested on: HCV replicon with a D168V mutation in a 1a-H77 background; assay: transient replicon assay, D168V mutation in 1a-H77 background; details: Hepatitis C virus, read-out: EC50 in a transient replicon assay with a D168V mutation in a 1a-H77 background
Protocol: (§1) Replicon cell lines can be maintained in Dulbecco's modified Eagles medium (DMEM) containing 100 IU/ml penicillin, […] streptomycin (Invitrogen), […] G418 (Invitrogen) and 10% (v/v) fetal bovine serum (FBS). Replicon-containing cells can be seeded into 96 well plates at a density of 5000 cells per well in 100 μl DMEM containing 5% FBS. The next day, the compound can be initially diluted in dimethyl sulfoxide (DMSO) to generate a 200× stock of the inhibitor in a series of 8 half-log dilutions. The dilution series can then be diluted 100-fold in the medium containing 5% FBS. One hundred microliters of medium with the inhibitor can be added to each well of the overnight cell culture plate already containing 100 μl of DMEM with 5% FBS. In assays where the protein binding effect on inhibitor potency is assessed, the medium from the overnight cell culture plates can be replaced with 200 μl DMEM containing 40% human plasma (Innovative Research) plus 5% FBS as well as compound. The cells can be grown for 4 days in tissue culture incubators. The inhibitory effects of compounds against the replicons can be determined by measuring either the level of luciferase or HCV RNA. The luciferase assay can be conducted using a Luciferase Assay System kit (Promega) following the manufacturer's instructions. Briefly, the cell culture medium is removed and wells are washed with 200 μl of phosphate-buffered saline. To each well Passive Lysis buffer (Promega, Wis.) is added and the plates are incubated for 30 min with rocking to lyse the cells. Luciferin solution (50 μl, Promega) is added, and luciferase activity is measured with a Victor II luminometer (Perkin-Elmer). To determine HCV RNA levels, RNA extractions can be performed using the CellsDirect kit (Invitrogen), and the HCV RNA copy number can be measured using the SuperScript III Platinum One-Step qRT-PCR system (Invitrogen) and primers specific to the HCV 5′ nontranslated region. Cytotoxicity can be determined by the 3-[4,5-dimethylhiazol-2-yl]-2,5-diphenyltetrazolium bromide (MTT) colorimetric assay as follows. Replicon cells is plated in 96-well plates (4000 cells per well), the next day compound dilutions are added as in the activity assay, and the cells are grown in the presence of the inhibitors for 4 days. The MTT solution is diluted in DMEM containing 5% FBS and 60 μl of the solution is added to the cells. After 4 hrs, the cells are solubilized by the addition of 30 […]μl SDS (20% in 0.02 N HCl). The plates are incubated overnight and the optical density can be measured at 570 nm. To determine compounds' EC50 and TD50, luciferase, RNA inhibition and MTT data can be analyzed using the GraphPad Prism 4 software (equation: sigmoidal dose-response—variable slope).
(§2) The 1a-H77 replicon for transient assays further differs from the replicon in the stable cell line in that it contains NS2 through NS5B in the second cistron. The 1b-N strain replicon contains NS3 through NS5B in the second cistron, with adaptive mutations E1202G in NS3 and S2204I in NS5A. Mutagenesis can be performed using the Stratagene QuikChange XL II site-directed mutagenesis kit. Mutants' sequences can be confirmed, plasmids can be linearized with Xba I restriction enzyme and used as template for in vitro transcription reactions to make mutant replicon RNA for transient transfections. In vitro transcription can be performed with the T7 Megascript kit (Ambion).
(§3) Transient replicon transfections can be performed essentially as described by Mo et al. (Antimicrob Agents Chemother (2005) 49(10):4305-4314) with slight modifications. Fifteen micrograms of template RNA can be used to electroporate 3×10^6 cells in a 200 μl volume in a 0.2 cm cuvette. The cells used for transient transfections can be Huh7 cells obtained by curing replicon-containing cells with IFN (Mo et al., supra). Electroporation can be done with a Gene Pulser II (Bio-Rad, CA) at 480V and 25 μF, using two manual pulses. […]

[2] = tested on: HCV replicon with a R155K mutation in a 1a-H77 background; assay: transient replicon assay, R155K mutation in 1a-H77 background; details: Hepatitis C virus, read-out: EC50 in a transient replicon assay with a R155K mutation in a 1a-H77 background
Protocol: as §1, §2, §3

[3] = tested on: HCV replicon with a D168E mutation in a 1a-H77 background; assay: transient replicon assay, D168E mutation in 1a-H77 background; details: Hepatitis C virus, read-out: EC50 in a transient replicon assay with a D168E mutation in a 1a-H77 background
Protocol: as §1, §2, §3

| Compound | EC50 [1] [nM] | EC50 [2] [nM] | EC50 [3] [nM] |
| --- | --- | --- | --- |
| CC(C)(C)OC(=O)N[C@H]1CCCCC/C=C\[C@@H]2C[C@@]2(C(=O)NS(=O)(=O)C2CC2)NC(=O)[C@@H]2C[C@@H](Oc3nc4cc(F)ccc4nc3C(F)(F)F)CN2C1=O [Example 106, tert-butyl (2R,6S,13aS,14aR,16aS,Z)-14a-(cyclopropylsulfonylcarbamoyl)-2-(7-fluoro-3-(trifluoromethyl)quinoxalin-2-yloxy)-5,16-dioxo-1,2,3,5,6,7,8,9,10,11,13a,14,14a,15,16,16a-hexadecahydrocyclopropa[e]pyrrolo[1,2-a][1,4]diazacyclopentadecin-6-ylcarbamate] | 50 to 250 | < 1 | 3 to 20 |
| Cc1onc(C(=O)N[C@H]2CCCCC/C=C\[C@@H]3C[C@@]3(C(=O)NS(=O)(=O)C3(C)CC3)NC(=O)[C@@H]3C[C@@H](Oc4nc5cc(F)ccc5nc4C(F)(F)F)CN3C2=O)c1C [Example 108, N-((2R,6S,13aS,14aR,16aS,Z)-2-(7-fluoro-3-(trifluoromethyl)quinoxalin-2-yloxy)-14a-(1-methylcyclopropylsulfonylcarbamoyl)-5,16-dioxo-1,2,3,5,6,7,8,9,10,11,13a,14,14a,15,16,16a-hexadecahydrocyclopropa[e]pyrrolo[1,2-a][1,4]diazacyclopentadecin-6-yl)-4,5-dimethylisoxazole-3-carboxamide] | < 25 | < 1 | < 3 |
| CC1(S(=O)(=O)NC(=O)[C@@]23C[C@H]2/C=C\CCCCC[C@H](NC(=O)c2ccon2)C(=O)N2C[C@H](Oc4nc5cc(F)ccc5nc4C(F)(F)F)C[C@H]2C(=O)N3)CC1 [Example 109, N-((2R,6S,13aS,14aR,16aS,Z)-2-(7-fluoro-3-(trifluoromethyl)quinoxalin-2-yloxy)-14a-(1-methylcyclopropylsulfonylcarbamoyl)-5,16-dioxo-1,2,3,5,6,7,8,9,10,11,13a,14,14a,15,16,16a-hexadecahydrocyclopropa[e]pyrrolo[1,2-a][1,4]diazacyclopentadecin-6-yl)isoxazole-3-carboxamide] | < 25 | < 1 | < 3 |
| CC(C)(C)OC(=O)N[C@H]1CCCCC/C=C\[C@@H]2C[C@@]2(C(=O)NS(=O)(=O)C2(C)CC2)NC(=O)[C@@H]2C[C@@H](Oc3nc4cc(F)ccc4nc3C(F)(F)F)CN2C1=O [Example 110, tert-butyl (2R,6S,13aS,14aR,16aS,Z)-2-(7-fluoro-3-(trifluoromethyl)quinoxalin-2-yloxy)-14a-(1-methylcyclopropylsulfonylcarbamoyl)-5,16-dioxo-1,2,3,5,6,7,8,9,10,11,13a,14,14a,15,16,16a-hexadecahydrocyclopropa[e]pyrrolo[1,2-a][1,4]diazacyclopentadecin-6-ylcarbamate] | 25 to 50 | < 1 | 3 to 20 |
| CC(C)(C)OC(=O)N[C@H]1CCCCC/C=C\[C@@H]2C[C@@]2(C(=O)NS(=O)(=O)C2CC2)NC(=O)[C@@H]2C[C@@H](Oc3nc4c(F)cccc4nc3C(F)(F)F)CN2C1=O [Example 112, tert-butyl (2R,6S,13aS,14aR,16aS,Z)-14a-(cyclopropylsulfonylcarbamoyl)-2-(8-fluoro-3-(trifluoromethyl)quinoxalin-2-yloxy)-5,16-dioxo-1,2,3,5,6,7,8,9,10,11,13a,14,14a,15,16,16a-hexadecahydrocyclopropa[e]pyrrolo[1,2-a][1,4]diazacyclopentadecin-6-ylcarbamate] | 25 to 50 | < 1 | 3 to 20 |
| Cc1cc(C(=O)N[C@H]2CCCCC/C=C\[C@@H]3C[C@@]3(C(=O)NS(=O)(=O)C3CC3)NC(=O)[C@@H]3C[C@@H](Oc4nc5c(F)cccc5nc4C(F)(F)F)CN3C2=O)no1 [Example 113, N-((2R,6S,13aS,14aR,16aS,Z)-14a-(cyclopropylsulfonylcarbamoyl)-2-(8-fluoro-3-(trifluoromethyl)quinoxalin-2-yloxy)-5,16-dioxo-1,2,3,5,6,7,8,9,10,11,13a,14,14a,15,16,16a-hexadecahydrocyclopropa[e]pyrrolo[1,2-a][1,4]diazacyclopentadecin-6-yl)-5-methylisoxazole-3-carboxamide] | < 25 | < 1 | < 3 |
| CC(C)(C)OC(=O)N[C@H]1CCCCC/C=C\[C@@H]2C[C@@]2(C(=O)NS(=O)(=O)C2(C)CC2)NC(=O)[C@@H]2C[C@@H](Oc3nc4c(F)cccc4nc3C(F)(F)F)CN2C1=O [Example 114, tert-butyl (2R,6S,13aS,14aR,16aS,Z)-2-(8-fluoro-3-(trifluoromethyl)quinoxalin-2-yloxy)-14a-(1-methylcyclopropylsulfonylcarbamoyl)-5,16-dioxo-1,2,3,5,6,7,8,9,10,11,13a,14,14a,15,16,16a-hexadecahydrocyclopropa[e]pyrrolo[1,2-a][1,4]diazacyclopentadecin-6-ylcarbamate] | 50 to 250 | < 1 | 3 to 20 |
| Cc1cc(C(=O)N[C@H]2CCCCC/C=C\[C@@H]3C[C@@]3(C(=O)NS(=O)(=O)C3(C)CC3)NC(=O)[C@@H]3C[C@@H](Oc4nc5c(F)cccc5nc4C(F)(F)F)CN3C2=O)no1 [Example 115, N-((2R,6S,13aS,14aR,16aS,Z)-2-(8-fluoro-3-(trifluoromethyl)quinoxalin-2-yloxy)-14a-(1-methylcyclopropylsulfonylcarbamoyl)-5,16-dioxo-1,2,3,5,6,7,8,9,10,11,13a,14,14a,15,16,16a-hexadecahydrocyclopropa[e]pyrrolo[1,2-a][1,4]diazacyclopentadecin-6-yl)-5-methylisoxazole-3-carboxamide] | < 25 | < 1 | < 3 |
| CC(C)(C)OC(=O)N[C@H]1CCCCC/C=C\[C@@H]2C[C@@]2(C(=O)NS(=O)(=O)C2CC2)NC(=O)[C@@H]2C[C@@H](Oc3nc4cc(F)ccc4nc3C(C)(F)F)CN2C1=O [Example 116, tert-butyl (2R,6S,13aS,14aR,16aS,Z)-14a-(cyclopropylsulfonylcarbamoyl)-2-(3-(1,1-difluoroethyl)-7-fluoroquinoxalin-2-yloxy)-5,16-dioxo-1,2,3,5,6,7,8,9,10,11,13a,14,14a,15,16,16a-hexadecahydrocyclopropa[e]pyrrolo[1,2-a][1,4]diazacyclopentadecin-6-ylcarbamate] | 25 to 50 | < 1 | 3 to 20 |
| CC(C)(C)OC(=O)N[C@H]1CCCCC/C=C\[C@@H]2C[C@@]2(C(=O)NS(=O)(=O)C2(C)CC2)NC(=O)[C@@H]2C[C@@H](Oc3nc4cc(F)ccc4nc3C(C)(F)F)CN2C1=O [Example 118, tert-butyl (2R,6S,13aS,14aR,16aS,Z)-2-(3-(1,1-difluoroethyl)-7-fluoroquinoxalin-2-yloxy)-14a-(1-methylcyclopropylsulfonylcarbamoyl)-5,16-dioxo-1,2,3,5,6,7,8,9,10,11,13a,14,14a,15,16,16a-hexadecahydrocyclopropa[e]pyrrolo[1,2-a][1,4]diazacyclopentadecin-6-ylcarbamate] | 250 to 1000 | 1 to 10 | > 100 |
